Assay results: ChEMBL document CHEMBL1140718, “Fragment-based discovery of mexiletine derivatives as orally bioavailable inhibitors of urokinase-type plasminogen activator” (J Med Chem, 2008)

Tests used:
[1] = target: Urokinase-type plasminogen activator (Homo sapiens, UniProt P00749)
[2] = Clearance in rat at 0.95 mg/kg, iv; type: ADME, organism-based; design: dose 0.95 mg/kg, route intravenous; conditions: in vivo
[3] = Volume of distribution in rat at 0.95 mg/kg, iv; type: ADME, organism-based; design: dose 0.95 mg/kg, route intravenous; conditions: in vivo
[4] = Half life in rat at 0.95 mg/kg, iv; type: ADME, organism-based; design: dose 0.95 mg/kg, route intravenous; conditions: in vivo
[5] = Oral bioavailability in rat at 4.2 mg/kg; type: ADME, organism-based; conditions: in vivo
[6] = Dissociation constant, pKa of the compound; type: physicochemical

Row | Compound | IC50 [1] [µM] | other results
1 | Cc1cc(C(=O)Nc2cccc(OC(C)C)c2)cc(C)c1OCCN | 2.7 | –
2 | NCCOc1c(Cl)cc(C(=O)Nc2ccccc2)cc1Cl | 35 | –
3 | CCOc1c(Cl)cc(N2CCCCC2)cc1NC(=O)c1cc(C)c(OCCN)c(C)c1 | – | clearance [2]: 2.58 L/h/kg; Vd [3]: 27 L/kg; half-life [4]: 7.5 h; bioavailability [5]: 60%; pKa [6]: 8.75
4 | COc1ccccc1NC(=O)c1cc(Cl)c(OCCN)c(Cl)c1 | 23 | –

Further lines, with some results ahead:

Row | IC50 [1] [µM] | Compound | other results
5 | 0.072 | Cc1cc(C(=O)Nc2cc(OC(C)C)cc(OC(C)C)c2)cc(C)c1OCCN | –
6 | 0.46 | CCOc1c(Cl)cc(N2CCCCC2)cc1NC(=O)c1cc(C)c(OC[C@@H](C)N)c(C)c1 | –
7 | 1.6 | Cc1cc(C(=O)Nc2cc(F)cc(N3CCOCC3)c2)cc(C)c1OCCN | –
8 | 0.037 | NC(N)=Nc1ncc(Cl)c2ccc(-c3cccc(C(=O)O)c3)cc12 | –
9 | 0.41 | CCOC(=O)N1CCN(C(=O)[C@H](Cc2cccc(C(=N)N)c2)NS(=O)(=O)c2c(C(C)C)cc(C(C)C)cc2C(C)C)CC1 | –
10 | 0.02 | N=C(N)c1ccc(CNC(=O)[C@H](CO)NC(=O)[C@@H](CO)NS(=O)(=O)Cc2ccccc2)cc1 | –
